{"source": "patent US20220031800A1", "about": "“PEPTIDES FOR TREATING NON-EXUDATIVE MACULAR DEGENERATION AND OTHER DISORDERS OF THE EYE” (Allegro Pharmaceuticals, LLC, priority 2019, published 2022)", "key": {"[1]": {"tested_on": "primary mouse retinal neuron cells", "assay": "Trypan blue viability of primary mouse retinal neuron cells exposed to kainic acid", "type": "cell-based, CD1 mice", "conditions": "1.0 mg/mL risuteganib alone", "method": "Purpose: Investigate neuroprotective properties of risuteganib in primary mouse retinal neuron cells exposed to kainic acid, a neuroexcitatory compound that activates glutamate receptors, resulting in overstimulation and cell death.\nMethods: Fresh retina were collected from CD1 mice and then mechanically dissociated with sterile Pasteur pipette. Cell suspensions were then dispensed into petri dish and incubated for 6 hours. Cells were then exposed to the experimental conditions: (1) untreated control, (2) 1.0 mg/mL risuteganib, (3) 500 μM kainic acid (KA), and (4) 1.0 mg/mL risuteganib for 24 hours before 500 μM kainic acid exposure. 8 hours after kainic acid treatment, dead and live cell numbers were measured using Trypan blue exclusion assay on a hemocytometer."}, "[2]": {"tested_on": "human retinal Müller cells (MIO-M1)", "assay": "Reactive oxygen species level in human Müller cells (MIO-M1)", "type": "cell-based", "conditions": "1× concentration (clinical dose), 24 hours", "method": "Purpose: To determine the effects of risuteganib and anti-VEGF drugs on reactive oxygen species (ROS) levels in cultured human retinal Müller cells (MIO-M1). Elevated ROS levels can disrupt normal cellular functions, leading to reduced cell health and possible cell death.\nMethods: The immortalized human retinal Müller cell line (MIO-M1) was obtained from the Department of Cell Biology of the University College, London. Cells were cultured in Dulbecco's Modified Eagle's Medium (DMEM) and plated in 24-well plates for 24 hours before treatment with 1× concentration of 1 mg/50 μL ALG-1001, ranibizumab, bevacizumab, or aflibercept. Dosage was based on clinical dose of each compound. The experiments were repeated 3 times with 6 replicates each. After 24 hours drug treatment, ROS level was measured using the fluorescent dye 2′,7′-dichlorodihydrofluorescein diacetate. The signals were read using the Biotek Synergy HT plate reader with EX filter in 482 nm and EM filter in 520 nm. Results were normalized to untreated control as 100%. Statistical analysis was performed in GraphPad Prism software program."}}, "note": "Square brackets hold non-standard residues; d marks the D form. Peptide text beside a SMILES is read from it. Cya = N[C@@H](CS(=O)(=O)O)C(=O)O"}
{"compound": "C[C@@H](O)[C@H](NC(=O)[C@H](CS(=O)(=O)O)NC(=O)CNC(=O)[C@H](CCCNC(=N)N)NC(=O)CN)C(=O)N1CCC[C@H]1C(=O)O", "note": "[risuteganib, Glycyl-L-arginylglycyl-3-sulfo-L-alanyl-L-threonyl-L-proline] (H-GRG[Cya]TP-OH)", "values": [{"measurement": "Change in cell viability, treatment alone", "setting": "[1]", "value": "did not induce detectable change in cell viability"}, {"measurement": "Change in ROS level compared to untreated control", "setting": "[2]", "value": "−19", "unit": "%"}]}
